Results published in article PMC5955599, “The HTLV-1 gp21 fusion peptide inhibits antigen specific T-cell activation in-vitro and in mice” (PLoS Pathogens, 2018).

How the values were obtained:
[1] = test system: MOG35-55–antigen specific T-cells; assay: mRNA expression in activated T-cells (qRT-PCR); format: cell-based, mouse (C57Bl/6J); settings: 10μM; APC activation; RNA 24 hours following activation; normalized to Rpl13a; n≥3
Protocol: Fig 2 Modulation of Th1/Th2 gene expression and cytokine secretion from activated T-cells by the HTLV FP. MOG35-55–antigen specific T-cells were activated by irradiated MOG35-55 presenting APCs, in the presence of the HTLV FP at 10μM. (A) Total RNA was isolated 24 hours following activation and mRNA expression levels were determined by qRT-PCR. The values of each gene were normalized to Rpl13a as a housekeeping control. The HTLV FP reduces mRNA expression of Th1 specific genes (IFNG, LTA, and STAT4) and elevates mRNA expression of Th2 specific genes (IL4 and IL10). The data is presented as arbitrary units. n≥3. (B) Media was collected 24 hours following activation and secretion of cytokines was measured by ELISA assay. IFN-γ secretion is inhibited, IL4 secretion is elevated and TNFα is not affected by the HTLV FP. n = 12. One-way ANOVA was used for statistical analysis. *P<0.05; **P<0.01;***P<0.001.
(A-B) MOG35-55–antigen specific T-cells were activated by irradiated MOG35-55 presenting APCs, in the presence of the HTLV FP at 10μM. Total RNA was isolated 24 hours following activation and mRNA expression levels were determined by qRT-PCR. The values of each gene were normalized to Rpl13a as a housekeeping control. The HTLV FP reduces TBX21 (T-bet) mRNA expression and elevates GATA3 mRNA expression. The data is presented as arbitrary units. n≥3. (C-H) MOG35-55–antigen specific T-cells were activated by irradiated MOG35-55 presenting APCs, in the presence of either HTLV or HIV FP at 10μM. Samples were fixed in 4% PFA and stained with anti T-bet-APC and anti Gata3-FITC antibodies (C-D) 24, (E-F) 48 and (G-H) 72 hours following activation. Each time point is represented as cell count vs. APC or FITC fluorescence histogram. Analysis was performed using LSR-II flow cytometer (BD) and FlowJo cell analysis software (FlowJo, LLC). The HTLV FP reduces T-bet expression and elevates Gata3 expression. n = 3. One-way ANOVA was used for statistical analysis. ns, not significant; *P<0.05;** P<0.01.
Antigen-specific T-cells were plated onto round 12-well plates (10^6 cells/ well) and activated with 5x10^5 irradiated (25 gray) APC and 5μg/ml of MOG p35-55 in the presence or absence of relevant peptides. Total RNA from cells was isolated 24 hours following activation using the NucleoSpin RNA II kit (Macherey-Nagel, Duren, Germany). 2μg aliquot of the total RNA was reverse transcribed into cDNA using Bio-RT (Bio-Lab, Jerusalem, Israel), dNTPs and random hexamer primers. qRT-PCR was performed on Step One Plus, ABI instrument (Applied Biosystems, Grand Island, NY, USA) using SYBR Green PCR Master Mix (Quanta BioSciences, Gaithersburg, MD, USA). The values for the specific genes were normalized to Rpl13a (mouse) as housekeeping controls and the data are described in arbitrary units. PCR reactions were performed in duplicate. The specific primers used for qRT-PCR are available on request.

[2] = test system: mouse MOG35-55–antigen specific T cells; settings: XTT, n = 4
Protocol: Aliquots of 10^4 cells were distributed onto a 96-well plate in the presence of 1.25–40μM of the relevant peptides for 16 or 72 hours. Following incubation, XTT reaction solution (benzene sulfonic acid hydrate and N-methyl dibenzopyrazine methyl sulfate, mixed in a proportion of 50:1), was added for 2 hours. Optical density was read at 450-nm wavelength. The percentage of toxicity was calculated relative to the control, 10^4 cells in medium with no peptide added.
Viability of cells was analyzed by an XTT cytotoxicity assay. MOG35-55–antigen specific T cells were incubated with peptides at concentrations ranging from 40μM to 2.5μM in serial dilutions (from black to light gray respectively). (A) Viability was analyzed following overnight (16 hours) incubation with peptides. (B) Viability was analyzed following 72 hour incubation with the peptide. The data is presented as mean percent viability. Error bars represent ± S.E.M. n = 4. (TIF) Click here for additional data file.

For “AVPVAVWLVSALAMGAGVAGGITGSMSLASGKS [HTLV FP]”, the “GATA3 mRNA expression” value [1] was “elevated Gata3 expression”, the “IFNG mRNA level” value [1] was “reduced the mRNA levels” and the “IL4 mRNA level” value [1] was “elevated the mRNA levels”. The “IL10 mRNA level” value [1] was “elevated the mRNA levels”, the “LTA mRNA level” value [1] was “reduced the mRNA levels” and the “STAT4 mRNA level” value [1] was “reduced the mRNA levels”. The “TBX21 (T-bet) mRNA expression” value [1] was “reduced TBX21 (T-bet) expression”, the “toxicity to mouse T-cells, 72 hours” value ([2]; peptide 40μM to 2.5μM, 72 hour incubation) was “not toxic up to 4-fold higher than the concentrations used in this study” and the “toxicity to mouse T-cells, 16 hours” value ([2]; peptides 40μM to 2.5μM, overnight (16 hours) incubation) was “not toxic up to 4-fold higher than the concentrations used in this study”.
